Columns and labels:
tasting panel = assay: Tasting panel test of perceived saltiness in salt-reduced broth; assay type: in vivo; conditions: for Level at which saltiness increase perceived / Effect on the perceived saltiness: salt-reduced broth, tasting panel; for Effect on the perceived saltiness: in words; for Upper threshold value for salt enhancement: stated in description
Method: A variety of compounds (listed in the table above) was tested in a salt-reduced broth. The compounds concerned were simply added to samples of the broth in a variety of concentrations and stirred in. The samples were tested by their being submitted to a tasting panel, which recorded its perceptions as to which sample (and therefore at what level of compound) a perception of increased saltiness was observed. The results are recorded in the table in the specification above.

[1] = Cooling threshold (level at which cooling effect detected); assay type: in vivo

SMILES	Level at which saltiness increase perceived (tasting panel) [ppm]	Threshold level at which cooling effect detected - estimated [1] [ppm]	Effect on the perceived saltiness (tasting panel)	Upper threshold value for salt enhancement (tasting panel) [ppm]
CC1CCC(C(C)C)C(OC(=O)C(C)O)C1 (stereo not shown) [menthyl lactate]	0.05	0.8		
CC1CCC(C(C)C)C(C(=O)Nc2ccc(CC#N)cc2)C1 (stereo not shown) [Compound 1, N-(4-cyanomethylphenyl) p-menthanecarboxamide]	0.005	0.08	considerably greater effect	0.005
CCNC(=O)C1CC(C)CCC1C(C)C (stereo not shown) [WS3]	0.05	1		
CC1CCC(C(C)C)C(O)C1 (stereo not shown) [Menthol, menthol]	0.05	1.5		
CNC(=O)C(C)(C(C)C)C(C)C [WS23]	0.05	1.5		
CC(C)[C@@H]1CC[C@@H](C)C[C@H]1C(=O)NCCc1ccccn1 [Compound 2, (1R,2S,5R)-2-isopropyl-5-methyl-N-(2-(pyridin-2-yl)ethyl)cyclohexanecarboxamide]	0.005	0.08	considerably greater effect	0.005

— US20080311266A1, “Salt Enhancement” (priority 2007, published 2008)
